Molecular target: BACE1 (Homo sapiens, UniProt P56817)
Experiment: cell-based FRET peptide cleavage assay, HEK-293 cells

BACE1, sequence (P56817 46-501): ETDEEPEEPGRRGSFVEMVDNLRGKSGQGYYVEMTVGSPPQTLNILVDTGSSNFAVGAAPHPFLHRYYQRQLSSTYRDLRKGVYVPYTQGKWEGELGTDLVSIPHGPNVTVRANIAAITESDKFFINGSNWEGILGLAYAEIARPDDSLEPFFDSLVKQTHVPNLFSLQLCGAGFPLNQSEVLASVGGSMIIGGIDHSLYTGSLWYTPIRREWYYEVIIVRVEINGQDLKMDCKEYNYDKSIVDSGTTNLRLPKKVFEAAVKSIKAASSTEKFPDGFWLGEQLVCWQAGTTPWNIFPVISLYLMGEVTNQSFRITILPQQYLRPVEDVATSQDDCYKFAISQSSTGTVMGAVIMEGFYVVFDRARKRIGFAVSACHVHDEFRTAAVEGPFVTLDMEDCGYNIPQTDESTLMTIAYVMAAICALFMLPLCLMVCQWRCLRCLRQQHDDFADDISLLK

Molecule `COC(=O)C1=C(C)[C@@]2(C)C[C@H]3[C@@]4(C)CCC(=O)C(C)(C)[C@@H]4CC[C@]3(C)[C@@](C)(C1=O)C2=O` [compound 1, asperterpene A] has an IC50 of 78 nM.

With `COC(=O)CC[C@@]1(C)[C@H](C(C)(C)O)CC[C@@]2(C)[C@H]1C[C@@]1(C)C(=O)[C@]2(C)C(=O)C(C(=O)OC)=C1C` [compound 2, asperterpene B] the IC50 was 59 nM.
